Measured values as given in patent publication US9708308B2, “Factor IXa inhibitors” (Merck Sharp & Dohme Corp., priority 2012, dated 2017).
pIC50: −log10 of the molar value.

Biological target: Factor IXa (Homo sapiens, UniProt P00740)
Assay: Determination of inhibitory activity against Factor IXa (cleavage of fluorescent peptide substrate)
Format: biochemical
Details: cleavage of fluorescent peptide CH3SO2-D-CHG-Gly-Arg-AFC, release of AFC; read-out: FIXa IC50
Source text: • (R)—N-(3-aminobenzo[d]isoxazol-6-yl)-2-hydroxy-2-((R)-4-(1-(6-methoxypyridazin-4-yl)-1H-pyrazol-3-yl)-6,6-dimethyl-3-oxomorpholin-2-yl)acetamide. Determination of Inhibitory Activity Against Factor IXa
Formation of a clot to stem bleeding at a site of blood vessel injury involves the coordinated activity of a group of plasma proteins that initiate and propagate fibrin formation and subsequently protect fibrin from premature degradation. Factor IX is a key component of the plasma system that forms a fibrin clot at a site of vascular injury. The activity of Factor IXa is measured by monitoring the cleavage of the fluorescent peptide, CH3SO2-D-CHG-Gly-Arg-AFC.AcOH (“CHG” is cyclohexyl-glycine and “AFC” is trifluoro aminomethyl coumarin). Factor IXa cleaves the amide bond between Arg and AFC, thereby releasing the AFC fluorophore. The free AFC can be detected with a fluorescence detector at an excitation wavelength of 405 nm and emission wavelength of 510 nm.

Factor IXa, sequence (P00740 227-461 limits assumed): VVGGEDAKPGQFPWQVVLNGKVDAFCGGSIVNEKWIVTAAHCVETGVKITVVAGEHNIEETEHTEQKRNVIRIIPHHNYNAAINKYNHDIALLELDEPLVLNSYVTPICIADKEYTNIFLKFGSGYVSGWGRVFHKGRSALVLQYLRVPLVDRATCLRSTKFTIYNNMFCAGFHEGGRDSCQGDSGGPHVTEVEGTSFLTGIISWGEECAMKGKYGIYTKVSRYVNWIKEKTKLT
Factor IXa, sequence (P00740 47-191 partner limits assumed): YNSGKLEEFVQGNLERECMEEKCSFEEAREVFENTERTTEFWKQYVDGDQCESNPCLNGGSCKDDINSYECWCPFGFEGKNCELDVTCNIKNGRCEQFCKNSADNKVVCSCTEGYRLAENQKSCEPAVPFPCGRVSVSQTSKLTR

pIC50 | SMILES
6.80 | COc1cc(-n2ccc(N3CCO[C@H]([C@@](C)(O)C(=O)Nc4ccc5c(N)noc5c4)C3=O)n2)ccn1 [Example 1, (2R)—N-(3-Amino-1,2-benzoxazol-6-yl)-2-hydroxy-2-[(2R)-4-[1-(2-methoxy-4-pyridyl)pyrazol-3-yl]-3-oxo-morpholin-2-yl]propanamide]
7.17 | Cc1cc(N2CCO[C@H]([C@@](C)(O)C(=O)Nc3ccc4c(N)noc4c3)C2=O)nn1-c1cnnc(C#N)c1 [Example 3]
7.64 | CCOc1cc(-n2ccc(N3CCO[C@H]([C@@](C)(O)C(=O)Nc4ccc5c(N)noc5c4)C3=O)n2)cnn1 [Example 4]
7.69 | C[C@](O)(C(=O)Nc1ccc2c(N)noc2c1)[C@H]1OCCN(c2ccn(-c3cnnc(C(N)=O)c3)n2)C1=O [Example 5, 5-(3-((R)-2-((R)-1-((3-Aminobenzo[d]isoxazol-6-yl)amino)-2-hydroxy-1-oxopropan-2-yl)-3-oxomorpholino)-1H-pyrazol-1-yl)pyridazine-3-carboxamide]
6.01 | C[C@](O)(C(=O)Nc1ccc2c(N)noc2c1)[C@H]1OCCN(c2ccn(-c3cnnc(OC(CO)CCl)c3)n2)C1=O (stereo partly drawn) [Example 6, (2R)—N-(3-Aminobenzo[d]isoxazol-6-yl)-2-((2R)-4-(1-(6-((1-chloro-3-hydroxypropan-2-yl)oxy)pyridazin-4-yl)-1H-pyrazol-3-yl)-3-oxomorpholin-2-yl)-2-hydroxypropanamide]
7.74 | C[C@](O)(C(=O)Nc1ccc2c(N)noc2c1)[C@H]1OCCN(c2ccn(-c3ccc(=O)n(C(F)F)c3)n2)C1=O [Example 7, (R)—N-(3-Aminobenzo[d]isoxazol-6-yl)-2-((R)-4-(1-(1-(difluoromethyl)-6-oxo-1,6-dihydropyridin-3-yl)-1H-pyrazol-3-yl)-3-oxomorpholin-2-yl)-2-hydroxypropanamide]
6.17 | C[C@](O)(C(=O)Nc1ccc2c(N)noc2c1)[C@H]1OCCN(c2ccn(-c3ccc(F)cc3)n2)C1=O [Example 13, (R)—N-(3-aminobenzo[d]isoxazol-6-yl)-2-((R)-4-(1-(4-fluorophenyl)-1H-pyrazol-3-yl)-3-oxomorpholin-2-yl)-2-hydroxypropanamide]
7.88 | C[C@](O)(C(=O)Nc1ccc2c(N)noc2c1)[C@H]1OCCN(c2ccn(-c3ccc(S(C)(=O)=O)cc3)n2)C1=O [Example 14, (R)—N-(3-aminobenzo[d]isoxazol-6-yl)-2-hydroxy-2-((R)-4-(1-(4-(methylsulfonyl)phenyl)-1H-pyrazol-3-yl)-3-oxomorpholin-2-yl)propanamide]
6.54 | C[C@](O)(C(=O)Nc1ccc2c(N)noc2c1)[C@H]1OCCN(c2ccn(-c3ccc(C(=O)O)cc3)n2)C1=O [Example 15, 4-(3-((R)-2-((R)-1-((3-aminobenzo[d]isoxazol-6-yl)amino)-2-hydroxy-1-oxopropan-2-yl)-3-oxomorpholino)-1H-pyrazol-1-yl)benzoic acid]
6.86 | C[C@](O)(C(=O)Nc1ccc2c(N)noc2c1)[C@H]1OCCN(c2ccn(-c3ccc(C#N)c(Cl)c3)n2)C1=O [Example 16, (R)—N-(3-aminobenzo[d]isoxazol-6-yl)-2-((R)-4-(1-(3-chloro-4-cyanophenyl)-1H-pyrazol-3-yl)-3-oxomorpholin-2-yl)-2-hydroxypropanamide]
6.26 | C[C@](O)(C(=O)Nc1ccc2c(N)noc2c1)[C@H]1OCCN(c2nn(-c3ccc(F)cc3)cc2F)C1=O [Example 17, (R)—N-(3-aminobenzo[d]isoxazol-6-yl)-2-((R)-4-(4-fluoro-1-(4-fluorophenyl)-1H-pyrazol-3-yl)-3-oxomorpholin-2-yl)-2-hydroxypropanamide]
7.14 | Cc1cc(-n2ccc(N3CCO[C@H]([C@@](C)(O)C(=O)Nc4ccc5c(N)noc5c4)C3=O)n2)ccn1 [Example 19, (R)—N-(3-aminobenzo[d]isoxazol-6-yl)-2-hydroxy-2-((R)-4-(1-(2-methylpyridin-4-yl)-1H-pyrazol-3-yl)-3-oxomorpholin-2-yl)propanamide]
7.80 | C[C@](O)(C(=O)Nc1ccc2c(N)noc2c1)[C@H]1OCCN(c2ccn(-c3ccnc(C#N)c3)n2)C1=O [Example 21, (R)—N-(3-aminobenzo[d]isoxazol-6-yl)-2-((R)-4-(1-(2-cyanopyridin-4-yl)-1H-pyrazol-3-yl)-3-oxomorpholin-2-yl)-2-hydroxypropanamide]
7.43 | C[C@](O)(C(=O)Nc1ccc2c(N)noc2c1)[C@H]1OCCN(c2ccn(-c3ccnc(C(F)(F)F)c3)n2)C1=O [Example 22, (R)—N-(3-aminobenzo[d]isoxazol-6-yl)-2-hydroxy-2-((R)-3-oxo-4-(1-(2-(trifluoromethyl)pyridin-4-yl)-1H-pyrazol-3-yl)morpholin-2-yl)propanamide]
6.95 | CCOc1cc(-n2ccc(N3CCO[C@H]([C@@](C)(O)C(=O)Nc4ccc5c(N)noc5c4)C3=O)n2)ccn1 [Example 23, (R)—N-(3-aminobenzo[d]isoxazol-6-yl)-2-((R)-4-(1-(2-ethoxypyridin-4-yl)-1H-pyrazol-3-yl)-3-oxomorpholin-2-yl)-2-hydroxypropanamide]
6.41 | CC(C)Oc1cc(-n2ccc(N3CCO[C@H]([C@@](C)(O)C(=O)Nc4ccc5c(N)noc5c4)C3=O)n2)ccn1 [Example 24, (R)—N-(3-aminobenzo[d]isoxazol-6-yl)-2-hydroxy-2-((R)-4-(1-(2-isopropoxypyridin-4-yl)-1H-pyrazol-3-yl)-3-oxomorpholin-2-yl)propanamide]
7.02 | CN(C)c1cc(-n2ccc(N3CCO[C@H]([C@@](C)(O)C(=O)Nc4ccc5c(N)noc5c4)C3=O)n2)ccn1 [Example 25, (R)—N-(3-aminobenzo[d]isoxazol-6-yl)-2-((R)-4-(1-(2-(dimethylamino)pyridin-4-yl)-1H-pyrazol-3-yl)-3-oxomorpholin-2-yl)-2-hydroxypropanamide]
6.46 | COc1cc(-n2ccc(N3CCO[C@H]([C@@](C)(O)C(=O)Nc4ccc5c(N)noc5c4)C3=O)n2)c(Br)cn1 [Example 26, (R)—N-(3-aminobenzo[d]isoxazol-6-yl)-2-((R)-4-(1-(5-bromo-2-methoxypyridin-4-yl)-1H-pyrazol-3-yl)-3-oxomorpholin-2-yl)-2-hydroxypropanamide]
6.83 | COc1cc(-n2ccc(N3CCO[C@H]([C@@](C)(O)C(=O)Nc4ccc5c(N)noc5c4)C3=O)n2)c(F)cn1 [Example 27, (R)—N-(3-aminobenzo[d]isoxazol-6-yl)-2-((R)-4-(1-(5-fluoro-2-methoxypyridin-4-yl)-1H-pyrazol-3-yl)-3-oxomorpholin-2-yl)-2-hydroxypropanamide]
6.35 | COc1cc(-n2ccc(N3CCO[C@H]([C@@](C)(O)C(=O)Nc4ccc5c(N)noc5c4)C3=O)n2)c(Cl)cn1 [Example 28, (R)—N-(3-aminobenzo[d]isoxazol-6-yl)-2-((R)-4-(1-(5-chloro-2-methoxypyridin-4-yl)-1H-pyrazol-3-yl)-3-oxomorpholin-2-yl)-2-hydroxypropanamide]
6.97 | COc1cc(-n2ccc(N3CCO[C@H]([C@@](C)(O)C(=O)Nc4ccc5c(N)noc5c4)C3=O)n2)c(C(F)(F)F)cn1 [Example 29, (R)—N-(3-aminobenzo[d]isoxazol-6-yl)-2-hydroxy-2-((R)-4-(1-(2-methoxy-5-(trifluoromethyl)pyridin-4-yl)-1H-pyrazol-3-yl)-3-oxomorpholin-2-yl)propanamide]
7.44 | C[C@](O)(C(=O)Nc1ccc2c(N)noc2c1)[C@H]1OCCN(c2nn(-c3ccnc(C(F)(F)F)c3)cc2F)C1=O [Example 30, (R)—N-(3-aminobenzo[d]isoxazol-6-yl)-2-((R)-4-(4-fluoro-1-(2-(trifluoromethyl)pyridin-4-yl)-1H-pyrazol-3-yl)-3-oxomorpholin-2-yl)-2-hydroxypropanamide]
7.51 | C[C@](O)(C(=O)Nc1ccc2c(N)noc2c1)[C@H]1OCCN(c2nn(-c3ccnc(C#N)c3)cc2F)C1=O [Example 31, (R)—N-(3-aminobenzo[d]isoxazol-6-yl)-2-((R)-4-(1-(2-cyanopyridin-4-yl)-4-fluoro-1H-pyrazol-3-yl)-3-oxomorpholin-2-yl)-2-hydroxypropanamide]
6.09 | COc1cc(-n2cc(Cl)c(N3CCO[C@H]([C@@](C)(O)C(=O)Nc4ccc5c(N)noc5c4)C3=O)n2)ccn1 [Example 33, (R)—N-(3-aminobenzo[d]isoxazol-6-yl)-2-((R)-4-(4-chloro-1-(2-methoxypyridin-4-yl)-1H-pyrazol-3-yl)-3-oxomorpholin-2-yl)-2-hydroxypropanamide]
6.24 | C[C@](O)(C(=O)Nc1ccc2c(N)noc2c1)[C@H]1OCCN(c2nn(-c3ccnc(C#N)c3)cc2Cl)C1=O [Example 34, (R)—N-(3-aminobenzo[d]isoxazol-6-yl)-2-((R)-4-(4-chloro-1-(2-cyanopyridin-4-yl)-1H-pyrazol-3-yl)-3-oxomorpholin-2-yl)-2-hydroxypropanamide]
6.16 | COc1cc(-n2cc(C)c(N3CCO[C@H]([C@@](C)(O)C(=O)Nc4ccc5c(N)noc5c4)C3=O)n2)ccn1 [Example 35, (R)—N-(3-aminobenzo[d]isoxazol-6-yl)-2-hydroxy-2-((R)-4-(1-(2-methoxypyridin-4-yl)-4-methyl-1H-pyrazol-3-yl)-3-oxomorpholin-2-yl)propanamide]
7.02 | COc1cc(-n2nc(N3CCO[C@H]([C@@](C)(O)C(=O)Nc4ccc5c(N)noc5c4)C3=O)cc2C)ccn1 [Example 36, (R)—N-(3-aminobenzo[d]isoxazol-6-yl)-2-hydroxy-2-((R)-4-(1-(2-methoxypyridin-4-yl)-5-methyl-1H-pyrazol-3-yl)-3-oxomorpholin-2-yl)propanamide]
